Measurements published in US6855730B2, “3-methylidenyl-2-indolinone modulators of protein kinase” (Sugen, Inc., priority 1998, dated 2005).
Where a name gives a salt, the structure may show the parent alone.

Biological target: T1, chimeric receptor containing the EGFR extracellular domain and intracellular HER2 kinase domain (Homo sapiens, UniProt P04626)
T1 construct: fused on or other part: EGFR ectodomain + HER2 intracellular part, ATP-site indolinones: HER2's kinase
Experiment: EGF Receptor-HER2 chimeric receptor assay in whole cells (ELISA)
Type: cell-based
Conditions: read-out: HER-2 kinase IC50
In short: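 NIH3T3 cells overexpressing EGFR-extracellular/HER2-kinase chimera, seeded in 0.5% serum for ~40 h, were pretreated with compound (1% final DMSO) 2 h at 37 °C, then stimulated with 100 nM EGF for 5 min. Lysates captured on anti-EGFR plates; phosphotyrosine detected by anti-Ptyr/HRP ELISA at 410 nm as percent inhibition.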

T1 sequence (P04626 720-1255 limits assumed, change not shown): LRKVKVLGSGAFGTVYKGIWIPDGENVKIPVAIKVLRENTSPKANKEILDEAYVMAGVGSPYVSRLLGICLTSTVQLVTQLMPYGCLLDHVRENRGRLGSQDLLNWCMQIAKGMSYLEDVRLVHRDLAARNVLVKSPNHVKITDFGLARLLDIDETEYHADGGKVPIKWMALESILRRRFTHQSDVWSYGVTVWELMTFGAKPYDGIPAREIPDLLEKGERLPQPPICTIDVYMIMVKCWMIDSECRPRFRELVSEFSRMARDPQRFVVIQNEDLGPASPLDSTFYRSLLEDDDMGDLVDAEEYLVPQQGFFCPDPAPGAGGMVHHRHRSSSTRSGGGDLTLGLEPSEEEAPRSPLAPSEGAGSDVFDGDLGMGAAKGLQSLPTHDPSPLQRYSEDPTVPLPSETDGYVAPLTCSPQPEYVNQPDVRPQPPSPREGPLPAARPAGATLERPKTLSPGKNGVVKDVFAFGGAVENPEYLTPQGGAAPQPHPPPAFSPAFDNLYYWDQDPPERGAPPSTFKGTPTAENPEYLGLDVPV

How did the IC50 turn out when COc1cccc(-c2cc(OC)c(OC)cc2/C=C2/C(=O)Nc3ccc(Cl)cc32)c1 [Example 61, 5-Chloro-3-(4,5-3′-Trimethoxybiphenyl-2-ylmethylene)-1,3-dihydroindol-2-one] was run?
The IC50 was greater than 100 µM.

Which IC50 does the source give for COc1cc(/C=C2/C(=O)Nc3ccccc32)c(-c2ccc3ccccc3c2)cc1OC [Example 62, 3-(4,5-Dimethoxy-2-naphthalen-2-ylbenzylidene)-1,3-dihydroindol-2-one] here?
The IC50 was greater than 100 µM.

For COc1ccc2c(c1)NC(=O)/C2=C/c1ccc(OC)c(-c2ccsc2)c1 [Example 64, 6-Methoxy-3-(4-methoxy-3-thiophen-3-ylbenzylidene)-1,3-dihydroindol-2-one], which IC50 is on record?
The IC50 was greater than 100 µM.

For COc1ccc(/C=C2/C(=O)Nc3ccccc32)cc1-c1ccccc1 [Example 65, 3-(6-Methoxybiphenyl-3-ylmethylene)-1,3-dihydroindol-2-one], which IC50 is on record?
The IC50 was greater than 100 µM.

With O=C1Nc2ccccc2/C1=C\c1ccc2c(c1)CCO2 [Example 66, 3-(2,3-Dihydrobenzofuran-5-ylmethylene)-1,3-dihydroindol-2-one] as the compound, how does the IC50 read?
The IC50 was greater than 100 µM.

COc1ccc(/C=C2/C(=O)Nc3ccc(Cl)cc32)cc1-c1ccccc1 [Example 67, 5-Chloro-3-(6-methoxybiphenyl-3-ylmethylene)-1,3-dihydroindol-2-one] was tested. Which IC50 did it give?
Its IC50 is greater than 100 µM.

COc1ccc(/C=C2\C(=O)Nc3cccc(C)c32)cc1C1CCCCC1 [Example 68, 3-(3-Cyclohexyl-4-methoxybenzylidene)-4-methyl-1,3-dihydroindol-2-one] was tested. Which IC50 did it give?
Its IC50 is greater than 100 µM.

With Cc1cccc2c1/C(=C/c1ccc3c(c1)CCO3)C(=O)N2 [Example 69, 3-(2,3-Dihydrobenzofuran-5-ylmethylene)-4-methyl-1,3-dihydroindol-2-one] as the compound, how does the IC50 read?
Its IC50 is greater than 100 µM.

How did the IC50 turn out when COc1ccc(/C=C2/C(=O)Nc3ncccc32)cc1C(C)C [Example 70, 3-(3-Isopropyl-4-methoxybenzylidene)-1,3-dihydropyrrolo[2,3-b]pyridine-2-one] was run?
The IC50 was greater than 100 µM.

For COc1ccc(/C=C2/C(=O)Nc3ncccc32)cc1-c1ccccc1 [Example 71, 3-(6-Methoxybiphenyl-3-ylmethylene)-1,3-dihydropyrrolo[2,3-b]pyridin-2-one], which IC50 is on record?
Its IC50 is greater than 100 µM.

COc1ccc(/C=C2/C(=O)Nc3ncccc32)cc1C1CCCCC1 [Example 72, 3-(3-Cyclohexyl-4-methoxybenzylidene)-1,3-dihydropyrrolo[2,3-b]pyridin-2-one] was tested. Which IC50 did it give?
The IC50 was greater than 100 µM.

With O=C1Nc2ncccc2/C1=C\c1ccc2c(c1)CCO2 [Example 73, 3-(2,3-Dihydrobenzofuran-5-ylmethylene)-1,3-dihydropyrrolo[2,3-b]pyridin-2-one] as the compound, how does the IC50 read?
Its IC50 is greater than 50 µM.

Which IC50 does the source give for COc1c(C(C)C)cc(/C=C2/C(=O)Nc3ncccc32)cc1C(C)C [Example 74, 3-(3,5-Diisopropyl-4-methoxybenzylidene)-1,3-dihydropyrrolo[2,3-b]pyridin-2-one] here?
The IC50 was greater than 100 µM.

For Cc1cc(CCC(=O)O)c(/C=C2\C(=O)Nc3cc(-c4ccc(F)cc4)ccc32)[nH]1 [Example 107, 3-{2-[6-(4-Fluorophenyl)-2-oxo-1,2-dihydroindol-3-ylidenemethyl]-5-methyl-1H-pyrrol-3-yl}propionic acid], which IC50 is on record?
The IC50 was greater than 100 µM.

How did the IC50 turn out when CCOC(=O)c1c(C)[nH]c(/C=C2\C(=O)Nc3cc(-c4ccc(F)cc4)ccc32)c1CCC(=O)O [Example 108, 4-(2-Carboxyethyl)-5-[6-(4-fluorophenyl)-2-oxo-1,2-dihydro-indol-3-ylidenemethyl]-2-methyl-1H-pyrrole-3-carboxylic acid ethyl ester] was run?
Its IC50 is greater than 100 µM.

COc1ccccc1-c1ccc2c(c1)NC(=O)/C2=C\c1[nH]c(C)cc1CCC(=O)O [Example 109, 3-{2-[6-(2-Methoxyphenyl)-2-oxo-1,2-dihydroindol-3-ylidenemethyl]-5-methyl-1H-pyrrol-3-yl}-propionic acid] was tested. Which IC50 did it give?
The IC50 was greater than 100 µM.

Which IC50 does the source give for CCOC(=O)c1c(C)[nH]c(/C=C2\C(=O)Nc3cc(-c4ccccc4OC)ccc32)c1CCC(=O)O [Example 110, 4-(2-Carboxyethyl)-5-[6-(2-methoxyphenyl)-2-oxo-1,2-dihydro-indol-3-ylidenemethyl]-2-methyl-1H-pyrrol-3-yl-carboxylic acid ethyl ester] here?
Its IC50 is greater than 100 µM.

How did the IC50 turn out when Cc1cc(CCC(=O)O)c(/C=C2\C(=O)Nc3ccc(Cl)cc32)[nH]1 [Example 111, 3-[2-(5-Chloro-2-oxo-1,2-dihydroindol-3-ylidenemethyl)-5-methyl-1H-pyrrol-3-yl]propionic acid] was run?
The IC50 was greater than 100 µM.

Cc1c(/C=C2\C(=O)Nc3ccc(C(=O)O)cc32)[nH]c2ccccc12 [Example 156, 3-(3-Methyl-1H-indol-2-ylmethylene)-2-oxo-2,3-dihydro-1H-indole-5-carboxylic acid (piperidine salt)] was tested. Which IC50 did it give?
Its IC50 is greater than 100 µM.

Which IC50 does the source give for O=C1Nc2ccc(Br)cc2/C1=C/c1cc2ccccc2[nH]1 [Example 165, 5-Bromo-3-(1H-indol-2-ylmethylene)-1,3-dihydro-indol-2-one] here?
Its IC50 is greater than 100 µM.

With Cc1cccc2c1/C(=C/c1cc3ccccc3[nH]1)C(=O)N2 [Example 166, 3-(1H-indol-2-ylmethylene)-4-methyl-1,3-dihydro-indol-2-one] as the compound, how does the IC50 read?
Its IC50 is greater than 100 µM.
